The target in this assay is human STAT6 (Homo sapiens (Human), UniProt P42226). Kind of assay: Surface plasmon resonance assay (Biacore 8K, binding to immobilized STAT6). Particulars: human STAT6 aa122-658, N-terminal His-tag, CM5 chip, 25° C.; geometric mean; read-out: STAT6 SPR Kd. How it is done: Biacore instruments from the 8K-series (Cytiva) were used, and measurements were performed at 25° C. Human STAT6 (truncated, aa122-658, with N-terminal His-tag, expressed in insect cells) was immobilized in the active flow cells on a CM5 chip using amine-coupling (default settings) at 10 μg/ml in 10 mM acetate buffer pH 5.5, at a contact time of 120-420 sec. and a flow rate of 10 μl/min. Reference flow cells were deactivated using blank immobilization. PBS-P+ (Cytiva) supplemented with 2% DMSO was used as running buffer, and solvent correction was applied. Compounds were tested by multi-cycle kinetics injections using a contact time of 60 sec., dissociation time of up to 300 sec., and a flow rate of 30 μl/min.
Chain of human STAT6 (P42226 122-658): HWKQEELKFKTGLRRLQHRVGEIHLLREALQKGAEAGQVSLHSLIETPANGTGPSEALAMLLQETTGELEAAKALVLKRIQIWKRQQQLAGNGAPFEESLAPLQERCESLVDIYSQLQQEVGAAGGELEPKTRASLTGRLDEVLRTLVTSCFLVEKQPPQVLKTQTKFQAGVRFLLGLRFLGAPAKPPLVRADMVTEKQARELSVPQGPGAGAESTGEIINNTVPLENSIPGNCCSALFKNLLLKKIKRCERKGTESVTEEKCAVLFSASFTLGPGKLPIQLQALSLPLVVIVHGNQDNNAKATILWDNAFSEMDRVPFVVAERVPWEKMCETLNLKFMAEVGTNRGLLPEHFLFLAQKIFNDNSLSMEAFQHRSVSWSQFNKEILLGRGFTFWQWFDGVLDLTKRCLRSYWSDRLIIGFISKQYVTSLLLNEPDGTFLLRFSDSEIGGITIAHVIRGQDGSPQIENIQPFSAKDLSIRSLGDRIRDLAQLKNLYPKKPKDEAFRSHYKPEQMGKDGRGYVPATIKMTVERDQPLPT
Solvent-corrected, reference-subtracted and blank-corrected data was processed and binding isotherms were fitted according to a single report point from each sensorgram (Standard: Late binding (5 sec. before injection end); alternative: Earlier report point according to binding profile). Data fitting was done both with unfixed Rmax and with Rmax fixed to the theoretical value* assuming 1:1 binding to allow processing of data from both weak and strong binders as well as to evaluate binding stoichiometry.
Positive controls were run at the beginning, during, and at the end of the screen to evaluate surface activity.
For orientation: Kd means a measure of binding affinity in units of concentration. Take `CNc1ccc(-c2ccnc3c2cc(CN2CC[C@@H](c4ccc(C(=O)N(C)C)cc4)[C@@H](F)C2)n3C)cn1` (stereo in doubt) [Example 1s27, N,N-Dimethyl-4-[(3R,4S)-3-fluoro-1-[[1-methyl-4-[6-(methylamino)-3-pyridyl]pyrrolo[2,3-b]pyridin-2-yl]methyl]-4-piperidyl]benzamide]: the Kd came out at 0.0406 µM.

Turning to `[2H]C([2H])([2H])N(C(=O)c1ccc(C2CCN(Cc3cc4c(-c5ccc(N)cn5)ccnc4n3C)CC2)cc1)C([2H])([2H])[2H]` [Example 1ae10, 4-[1-[[4-(5-Amino-2-pyridyl)-1-methyl-pyrrolo[2,3-b]pyridin-2-yl]methyl]-4-piperidyl]-N,N-bis(trideuteriomethyl)benzamide], the Kd worked out at 0.0254 µM.

As to `CN(C)C(=O)c1ccc(C2CCN(Cc3cc4c(-c5ncc(N)cc5F)ccnc4n3C)CC2)cc1` [Example 1k72, 4-[1-[[4-(5-Amino-3-fluoro-2-pyridyl)-1-methyl-pyrrolo[2,3-b]pyridin-2-yl]methyl]-4-piperidyl]-N,N-dimethyl-benzamide], the Kd is 0.0751 µM.

As to `[2H]C([2H])([2H])N(C(=O)c1ccc(C2=CCN([C@H](C)c3cc4c(-c5ccc(N)cn5)ccnc4n3C)CC2)c(C)c1)C([2H])([2H])[2H]` [Example 1af33, (R)-4-(1-(1-(4-(5-aminopyridin-2-yl)-1-methyl-1H-pyrrolo[2,3-b]pyridin-2-yl)ethyl)-1,2,3,6-tetrahydropyridin-4-yl)-3-methyl-N,N-bis(methyl-d3)benzamide], the Kd came to 0.0154 µM.

Take `C[C@@H](c1cc2c(-c3ccc(N)nc3C#N)ccnc2n1C)N1CC=C(c2ccc(C(=O)N(C)C)cc2)CC1` [Example 1af21, (S)-4-(1-(1-(4-(6-amino-2-cyanopyridin-3-yl)-1-methyl-1H-pyrrolo[2,3-b]pyridin-2-yl)ethyl)-1,2,3,6-tetrahydropyridin-4-yl)-N,N-dimethylbenzamide]: the Kd is 8.66 µM.

Take `CN(C)C(=O)c1ccc(C2CCN(Cc3cc4c(-c5c(C(F)F)cc(N)cc5C(F)F)ccnc4n3C)CC2)cc1` [Example 1k55, 4-[1-[[4-[4-Amino-2,6-bis(difluoromethyl)phenyl]-1-methyl-pyrrolo[2,3-b]pyridin-2-yl]methyl]-4-piperidyl]-N,N-dimethyl-benzamide]: the Kd came to 1.01 µM.

On to `[2H]C([2H])([2H])N(C(=O)c1ccc(C2CCN([C@H](C)c3cc4c(-c5ccc(N)nc5C#N)ccnc4n3C)CC2)c(C)c1)C([2H])([2H])[2H]` [Example 1af38, (R)-4-(1-(1-(4-(6-amino-2-cyanopyridin-3-yl)-1-methyl-1H-pyrrolo[2,3-b]pyridin-2-yl)ethyl)-piperidin-4-yl)-3-methyl-N,N-bis(methyl-d3)benzamide], for which the Kd is 5.27 µM.

As to `Cc1cc(C(=O)N(C)C)ccc1C1CCN([C@@H](C)c2cc3c(-c4ccc(N)cn4)ccnc3n2C)CC1` [Example 1af17, (S)-4-(1-(1-(4-(5-aminopyridin-2-yl)-1-methyl-1H-pyrrolo[2,3-b]pyridin-2-yl)ethyl)piperidin-4-yl)-N,N,3-trimethylbenzamide], the Kd amounted to 6.4 µM.

Consider `CC(=O)Nc1ccc(-c2ccnc3c2cc(CN2CCC(c4ccc(C(=O)N(C)C)cc4)CC2)n3C)cn1` [Example 1k2, 4-[1-[[4-(6-Acetamido-3-pyridyl)-1-methyl-pyrrolo[2,3-b]pyridin-2-yl]methyl]-4-piperidyl]-N,N-dimethyl-benzamide], for which the Kd came to 0.064 µM.

Turning to `[2H]C([2H])([2H])N(C(=O)c1ccc(C2CCN([C@@H](C)c3cc4c(-c5ccc(N)nc5C#N)ccnc4n3C)CC2)cc1)C([2H])([2H])[2H]` [Example 1af29, (S)-4-(1-(1-(4-(6-Amino-2-cyanopyridin-3-yl)-1-methyl-1H-pyrrolo[2,3-b]pyridin-2-yl)ethyl)-piperidin-4-yl)-N,N-bis(methyl-d3)benzamide], the Kd came to 0.645 µM.

Take `Cc1nc(N)cnc1-c1ccnc2c1cc(CN1CCC(c3ccc(C(=O)N(C)C)cc3)CC1)n2C` [Example 1k39, 4-[1-[[4-(5-Amino-3-methyl-pyrazin-2-yl)-1-methyl-pyrrolo[2,3-b]pyridin-2-yl]methyl]-4-piperidyl]-N,N-dimethyl-benzamide]: the Kd was 2.28 µM.

With `CN(C)C(=O)c1ccc(C2CCN(Cc3cc4c(-c5cnc(N)c(C(F)(F)F)c5)ccnc4n3C)CC2)cc1` [Example 1k36, 4-[1-[[4-[6-Amino-5-(trifluoromethyl)-3-pyridyl]-1-methyl-pyrrolo[2,3-b]pyridin-2-yl]methyl]-4-piperidyl]-N,N-dimethyl-benzamide], the Kd was determined as 1.12 µM.

As for `CNc1ccc(-c2ccnc3c2cc([C@H](C)N2CCC(c4ccc(C(=O)N(C)C)cc4)CC2)n3C)cn1` (single isomer, unassigned) [Example 1af7], the Kd is 0.222 µM.

On to `CN(C)C(=O)c1ccc(C2CCN(Cc3cc4c(-c5cnc(N)cc5CO)ccnc4n3C)CC2)cc1` [Example 1k49, 4-[1-[[4-[6-Amino-4-(hydroxymethyl)-3-pyridyl]-1-methyl-pyrrolo[2,3-b]pyridin-2-yl]methyl]-4-piperidyl]-N,N-dimethyl-benzamide], for which the Kd stood at 0.148 µM.

Turning to `CNc1ccc(-c2ccnc3c2cc(CN2CCC(F)(c4ccc(C(=O)N(C)C)cc4)CC2)n3C)nc1` [Example 1o19, 4-[4-Fluoro-1-[[1-methyl-4-[5-(methylamino)-2-pyridyl]pyrrolo[2,3-b]pyridin-2-yl]methyl]-4-piperidyl]-N,N-dimethyl-benzamide], the Kd was determined as 0.173 µM.

Turning to `CNc1ccc(-c2ccnc3c2cc(CN2CCC(F)(c4ccc(C(=O)N(C)C)cc4)CC2)n3C)cn1` [Example 1s26, 4-[4-Fluoro-1-[[1-methyl-4-[6-(methylamino)-3-pyridyl]pyrrolo[2,3-b]pyridin-2-yl]methyl]-4-piperidyl]-N,N-dimethyl-benzamide], the Kd worked out at 0.0616 µM.

On to `C[C@@H](c1cc2c(-c3ccc(N)cn3)ccnc2n1C)N1CCC(c2ccc(C(=O)N(C)C)cc2)CC1` [Example 1af15, (S)-4-(1-(1-(4-(5-amino-pyridin-2-yl)-1-methyl-1H-pyrrolo[2,3-b]pyridin-2-yl)-ethyl)piperidin-4-yl)-N,N-dimethylbenzamide], for which the Kd turned out to be 0.438 µM.

On to `C[C@@H](c1cc2c(-c3ccc(N)nc3C#N)ccnc2n1C)N1CCC(c2ccc(C(=O)N(C)C)cc2)CC1` [Example 1af13, (S)-4-(1-(1-(4-(6-amino-2-cyanopyridin-3-yl)-1-methyl-1H-pyrrolo[2,3-b]pyridin-2-yl)ethyl)piperidin-4-yl)-N,N-dimethylbenzamide], for which the dissociation constant (Kd) was 0.691 µM.

As for `CNc1ccc(-c2ccnc3c2cc([C@@H](C)N2CCC(c4ccc(C(=O)N(C)C)cc4)CC2)n3C)nc1` [Example 1o25, (R)—N,N-dimethyl-4-(1-(1-(1-methyl-4-(5-(methyl-amino)pyridin-2-yl)-1H-pyrrolo[2,3-b]pyridin-2-yl)ethyl)piperidin-4-yl)benzamide], the Kd was 1.35 µM.

Consider `CC(=O)Nc1ccc(-c2ccnc3c2cc(CN2CCC(c4ccc(C(=O)N(C)C)cc4)CC2)n3C)c(C)n1` [Example 1k40, 4-[1-[[4-(6-Acetamido-2-methyl-3-pyridyl)-1-methyl-pyrrolo[2,3-b]pyridin-2-yl]methyl]-4-piperidyl]-N,N-dimethyl-benzamide], for which the Kd was determined as 0.475 µM.

The values are drawn from patent US20250340551A1, “SMALL MOLECULE MODULATORS OF STAT6” (Gilead Sciences, Inc., priority 2024, published 2025).
